Reference: the NIST ThermoML archive (doi:10.1016/j.jct.2015.05.011)

Assays:
[1] = refractive index (Na D-line) (dimensionless); xn = mol fraction of the nth substance listed; conditions: 298.15 K, 100 kPa, Liquid, Standard Abbe refractometry
[2] = excess molar enthalpy (molar enthalpy of mixing); xn = mol fraction of the nth substance listed; conditions: 100 kPa, Liquid, Flow calorimetry
[3] = xn = mol fraction of the nth substance listed; conditions: 100 kPa, Liquid; for mass density: Vibrating tube method; for viscosity: Falling or rolling sphere viscometry

CCn1cc[n+](C)c1.N#C[C-](C#N)C#N [1-ethyl-3-methyl-1H-imidazolium tricyanomethanide] + O
[1]
Conditions	refractive index
x2 = 0	1.51227
x2 = 0.1084	1.50965
x2 = 0.2059	1.50681
x2 = 0.3058	1.50438
x2 = 0.4145	1.49961
x2 = 0.5128	1.49477
x2 = 0.6095	1.487
x2 = 0.7065	1.4765
x2 = 0.789	1.46324
x2 = 0.9015	1.42697
x2 = 0.9513	1.39433
x2 = 0.9869	1.35455

Conditions	excess molar enthalpy, [2] [kcal/mol]	mass density, [3] [kg/m3]	viscosity, [3] [mPa·s]
288.15 K, x1 = 0.000486	0.00123	999.748	–
288.15 K, x1 = 0.000971	0.00258	1000.38	–
288.15 K, x1 = 0.001456	0.00395	1000.99	–
288.15 K, x1 = 0.001941	0.0053	1001.57	–
288.15 K, x1 = 0.002425	0.00668	1002.13	–
288.15 K, x1 = 0.002908	0.00806	1002.68	–
298.15 K, x1 = 0.000486	0.00143	997.586	–
298.15 K, x1 = 0.000971	0.00297	998.133	–
298.15 K, x1 = 0.001455	0.0045	998.652	–
298.15 K, x1 = 0.00194	0.00603	999.158	–
298.15 K, x1 = 0.002423	0.00756	999.648	–
298.15 K, x1 = 0.002907	0.00907	1000.12	–
298.15 K, x2 = 0	–	1081.38	14
298.15 K, x2 = 0.1084	–	1079.85	11.85
298.15 K, x2 = 0.2059	–	1078.28	10.11
298.15 K, x2 = 0.3058	–	1076.34	8.35
298.15 K, x2 = 0.4145	–	1073.8	7.05
298.15 K, x2 = 0.5128	–	1070.97	5.88
298.15 K, x2 = 0.6095	–	1067.4	4.89
298.15 K, x2 = 0.7065	–	1062.54	3.98
298.15 K, x2 = 0.789	–	1056.44	3.24
298.15 K, x2 = 0.9015	–	1040.72	2.16
298.15 K, x2 = 0.9513	–	1026.4	1.58
298.15 K, x2 = 0.9869	–	1008.32	1.07
308.15 K, x1 = 0.000485	0.00166	994.509	–
308.15 K, x1 = 0.00097	0.00339	994.981	–
308.15 K, x1 = 0.001455	0.00511	995.435	–
308.15 K, x1 = 0.001939	0.00682	995.873	–
308.15 K, x1 = 0.002423	0.00851	996.296	–
308.15 K, x1 = 0.002906	0.0102	996.708	–
318.15 K, x1 = 0.000485	0.00184	990.626	–
318.15 K, x1 = 0.00097	0.00377	991.036	–
318.15 K, x1 = 0.001455	0.00569	991.43	–
318.15 K, x1 = 0.001939	0.00759	991.809	–
318.15 K, x1 = 0.002422	0.00945	992.176	–
318.15 K, x1 = 0.002905	0.0113	992.534	–
